The text below walks through data of patent US20110319362A1, “STAT3 LIGANDS AND THERAPEUTIC USES THEREOF” (priority 2008, published 2011).

Read-outs that look alike come from different tables or passages of the source.

In general, IC50 refers to the concentration that inhibits the measured activity by half.

One test has as its target T1, STAT3 protein (Homo sapiens, UniProt P40763).
T1 construct: human STAT3 protein (residues 122-722) fused to His-tag; His-tag
In words: In vitro competitive STAT3 binding assay (fluorescence polarization). The text has this:
To quantitatively determine the binding affinities of STAT3 inhibitors to STAT3 protein, a sensitive and quantitative in vitro binding assay was developed based upon fluorescence polarization (FP) method. For this FP assay, 5-carboxyfluorescein (5-Fam) was coupled to a phosphopeptide (phospho-Tyr-Leu-Pro-Gln-Thr-Val-amide) with two beta-alanine and one glycine residues as the spacer between 5-Fam and the phosphopeptide to obtain 5-Fam-beta-Ala-beta-Ala-Gly-phospho-Tyr-Leu-Pro-Gln-Thr-Val-amide as the fluorescently tagged tracer, which was named as STT2 peptide. […] The recombinant human STAT3 protein (residues 122-722) fused to His-tag was stable and soluble.
Competitive binding experiments were carried out using 150 nM of STAT3 protein and 5 nM of STT2 peptide with different concentrations of a tested STAT3 inhibitor. For each experiment, two controls were included. One control contained STAT3 protein and STT2 peptide, and the second control contained STT2 peptide only. The polarization values were measured after 2-3 hours of incubation using an ULTRA READER (Tecan U.S. Inc., Research Triangle Park, N.C.). IC50 values, the inhibitor concentration at which 50% of the fluorescently tagged STT2 peptide is displaced by STAT3 inhibitors, was determined from a plot using nonlinear least-squares analysis using GRAPHPAD PRISM software (GraphPad Software, Inc., San Diego, Calif.). […]

The test system of test [1] is MDA-MB-468 cancer cell line. The test can be described thus: Cell growth assay (WST-8). The following applies: Homo sapiens, MDA-MB-468, 96 h; WST-8, 4 days; read-out: Inhibition of cell growth IC50, MDA-MB-468 cancer cell line. In kind it is cell-based. On the procedure: (§1) The effect of STAT3 compounds on cell growth was evaluated by a WST-8 [2-(2-methoxy-4-nitrophenyl)-3-(4-nitrophenyl)-5-(2,4-disulfophenyl)-2H-tetrazolium, monosodium salt assay (Dojindo Molecular Technologies, Inc). Cells (3000-4000 cells in each well) were cultured in 96-well tissue culture plates in medium (200 μL) containing various concentrations of STAT3 compounds for 4 days. At the end of incubation, WST-8 dye (20 μL) was added to each well and incubated for an additional 1-3 h, and then the absorbance was measured in a microplate reader (Molecular Devices) at 450 nm. Cell growth inhibition was evaluated as the ratio of the absorbance of the sample to that of the control.
Background: Tetrazolium dyes change colour on reduction, which living cells bring about.

For test [2], the system named is MDA-MB-231 cancer cell line. In words: Cell growth assay (WST-8). Format: cell-based. The following applies: Homo sapiens, MDA-MB-231, 96 h; WST-8, 4 days; read-out: Inhibition of cell growth IC50, MDA-MB-231 cancer cell line. Here is the method: as §1
[3] abbreviates: FP competitive binding, fluorescently tagged STT2 peptide tracer, read-out: Binding affinities to STAT3 IC50.

T1 sequence (P40763 122-722): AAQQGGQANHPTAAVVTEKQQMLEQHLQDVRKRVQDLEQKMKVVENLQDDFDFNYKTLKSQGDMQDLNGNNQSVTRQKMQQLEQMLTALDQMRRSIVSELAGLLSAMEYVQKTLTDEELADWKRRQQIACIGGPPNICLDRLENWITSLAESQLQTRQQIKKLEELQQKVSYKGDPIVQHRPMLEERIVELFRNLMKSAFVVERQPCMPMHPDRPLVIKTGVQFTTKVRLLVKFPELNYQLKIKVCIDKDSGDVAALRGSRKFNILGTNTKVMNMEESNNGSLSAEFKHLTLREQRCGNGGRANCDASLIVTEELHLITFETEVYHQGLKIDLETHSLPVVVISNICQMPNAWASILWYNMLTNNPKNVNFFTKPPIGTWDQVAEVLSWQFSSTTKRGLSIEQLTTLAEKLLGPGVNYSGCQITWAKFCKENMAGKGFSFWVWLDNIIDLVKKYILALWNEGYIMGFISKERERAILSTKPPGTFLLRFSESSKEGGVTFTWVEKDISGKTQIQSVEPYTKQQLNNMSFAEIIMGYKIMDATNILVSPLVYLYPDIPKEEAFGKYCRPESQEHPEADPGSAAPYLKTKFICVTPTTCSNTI

As to `CN[C@@H](Cc1ccc(OCP(=O)(O)O)cc1)C(=O)NC1CCCC[C@H]2CC[C@@H](C(=O)N[C@@H](Cc3c[nH]cn3)C(=O)NCc3ccccc3)N2C1=O` (stereo in doubt) [Example 35], the IC50 at STAT3 protein (setting [3]) was under 100 µM; in test [1], over 100 µM; in test [2] it was over 100 µM.
With `CCCCCCCCCCCCCCCCN1CCN(CCC(=O)N[C@@H](Cc2ccc(OP(=O)(O)O)cc2)C(=O)N[C@H]2CCCCC3CC[C@@H](C(=O)NCCc4cnc[nH]4)N3C2=O)CC1` (stereo partly drawn), the IC50 (at STAT3 protein (setting [3]); in test [1]; in test [2]) was under 10 µM in each case.
On to `CCCCCCCCCCCCCCCC(=O)N[C@@H](Cc1ccc(OP(=O)(O)O)cc1)C(=O)NC1CCCC[C@H]2CC[C@@H](C(=O)N[C@@H](Cc3c[nH]cn3)C(=O)NCc3ccccc3)N2C1=O` (stereo partly drawn) [Example 38], for which the IC50 on STAT3 protein was under 100 µM; in test [1], under 60 µM; in test [2], under 50 µM.
In the case of `CN(C)[C@@H](Cc1ccc(OP(=O)(O)O)cc1)C(=O)N[C@H]1CCCCC2CC[C@@H](C(=O)N[C@@H](CNC(=N)N)C(=O)NCc3ccccc3)N2C1=O` (stereo partly drawn), the half-maximal inhibitory concentration (IC50) was under 100 µM on STAT3 protein (setting [3]), over 100 µM in test [1] and over 50 µM in test [2].
Turning to `CC[C@H](NC(=O)[C@@H]1CCC2CCCC[C@H](NC(=O)[C@H](Cc3ccc(OP(=O)(O)O)cc3)NC(=O)OCc3ccccc3)C(=O)N21)C(=O)NCc1ccccc1` (stereo partly drawn), the concentration for half-maximal inhibition (IC50) on STAT3 protein is over 10 µM; in test [1] it was over 30 µM; in test [2] it was over 30 µM.
Regarding `CCOC(=O)COc1ccc(C[C@H](NC(C)=O)C(=O)N[C@H]2CCCCC3CC[C@@H](C(=O)N[C@@H](CCC(N)=O)C(=O)NCc4ccccc4)N3C2=O)cc1` (stereo partly drawn), the IC50 (on STAT3 protein (setting [3]); in test [1]; in test [2]) was over 100 µM throughout.
Regarding `C[C@H](NC(=O)[C@@H]1CC[C@@H]2CCCC[C@H](NC(=O)[C@@H](N)Cc3ccc(OC(C(=O)O)C(=O)O)cc3)C(=O)N21)C(=O)NCc1ccccc1` [Example 10], the IC50 on STAT3 protein (setting [3]) was over 100 µM; in test [1] it was over 100 µM; in test [2], over 50 µM.
For `CCCCCCCCCCCCCCCCN1CCN(CCC(=O)N[C@@H](Cc2ccc(OP(=O)(O)O)cc2)C(=O)N[C@H]2CCCCC3CC[C@@H](C(=O)N[C@H](CO)Cc4c[nH]cn4)N3C2=O)CC1` (stereo partly drawn), the IC50 is under 5 µM on STAT3 protein (setting [3]), under 20 µM in test [1] and under 20 µM in test [2].
Consider `CN[C@@H](Cc1ccc(OP(=O)(O)O)cc1)C(=O)N[C@H]1CCCCC2CC[C@@H](C(=O)N[C@@H](CCC(N)=O)C(=O)NCc3ccccc3)N2C1=O` (stereo in doubt) [Example 40], for which the IC50 at STAT3 protein (setting [3]) is under 1 µM; in test [1], over 100 µM; in test [2], over 30 µM.
Taken in the same sequence, the figures for `NC(=O)CCCNC(=O)[C@@H]1CCC2CCCC[C@H](NC(=O)[C@H](Cc3ccc(OP(=O)(O)O)cc3)NC(=O)OCc3ccccc3)C(=O)N21` (stereo partly drawn) [Example 16] were under 30 µM, over 100 µM and over 100 µM.
For the molecule `CCCCCCCCCCCCCCCCN1CCN(CCC(=O)N[C@@H](Cc2ccc(OP(=O)(O)O)cc2)C(=O)N[C@H]2CCCCC3CC[C@@H](C(=O)NCCc4nnc[nH]4)N3C2=O)CC1` (stereo partly drawn), the IC50 is under 5 µM at STAT3 protein (setting [3]), under 20 µM in test [1] and under 20 µM in test [2].
For the molecule `CCCCCCCCCCCCCCCCNC(=O)[C@H](CCC(N)=O)NC(=O)[C@@H]1CC[C@@H]2CCCC[C@H](NC(=O)[C@H](Cc3ccc(OP(=O)(O)O)cc3)NC(=O)CCN3CCN(C)CC3)C(=O)N21`, the IC50 was under 5 µM at STAT3 protein, over 20 µM in test [1] and over 20 µM in test [2].
Consider `CC(=O)N[C@@H](Cc1ccc(OCC(=O)O)cc1)C(=O)N[C@H]1CCCC[C@H]2CC[C@@H](C(=O)N[C@@H](CCC(N)=O)C(=O)NCc3ccccc3)N2C1=O` [Example 7], for which the IC50 on STAT3 protein (setting [3]) is over 50 µM; in test [1], over 100 µM; in test [2], over 100 µM.
Turning to `NC(=O)CC[C@H](NC(=O)[C@@H]1CCC2CCCC[C@H](NC(=O)CCc3ccc(OP(=O)(O)O)cc3)C(=O)N21)C(=O)NCc1ccccc1` (stereo partly drawn), the values for the IC50 (on STAT3 protein; in test [1]; in test [2]) were under 5 µM, over 100 µM and over 100 µM, respectively.
